Assays:
Format in all cases: in vivo, human
bilateral hip arthritis = assay: Treatment of bilateral hip arthritis with a CMO compound and doxycycline (case report)
Description: Doxycycline therapy was used for treatment of a middle aged person suffering from bilateral hip arthritis and experiencing severe pain despite increasing doses of NSAIDs. […] Cox-2 inhibitors were substituted for the NSAID agents with better results. However, over time, it was necessary to increase the doses of both agents to two to three times the initial dose in order to maintain adequate symptomatic relief. […] A CMO compound was added and the dosage of the other agents decreased to initial levels. […] The Cox-2 agent was discontinued with no increase in severity of symptoms.

[1] = system: ankle and knee arthritis pain; assay: Treatment of ankle and knee arthritis with a CMO compound and doxycycline (case report)
knee arthritis = assay: Treatment of knee arthritis with a CMO compound and a tetracycline compound (case report)
Description: NSAID therapy was halted and tetracycline therapy was added.

bee sting = assay: Relief of venom induced inflammation, topical treatment of bee stings (case report); details: bee sting on one arm of the same individual
Description: Different bee stings on the same individual were treated by two different methods. A bee sting on one arm was treated with papain with mild relief from pain and swelling. A second bee sting on the other arm was treated with papain, a eutectic mixture of local anaesthetics (EMLA®) and a topical steroid (Kenalog). […] The improved relief from pain was apparent even after all other sensation had returned to normal in the area which received the EMLA® treatment.

[2] = dosage of doxycycline and Cox-2 agent decreased to initial levels

CCCC/C=C\CCCCCCCC(=O)OCCCCCCCCCCCCCCCC [CMO, cetyl myristoleate]
side effects after a CMO compound was added (bilateral hip arthritis; [2]): side effects disappeared | symptomatic relief after a CMO compound was added (bilateral hip arthritis; [2]): improved symptomatic relief | symptoms when the agent was discontinued (bilateral hip arthritis; patient on CMO compound and doxycycline): worsening symptomatology | symptoms when the agent was discontinued ([1]; combination of CMO compound and doxycycline): Symptoms returned | relief of ankle and knee arthritis pain ([1]; female senior citizen, CMO therapy alone): no or minimal relief | symptoms when the agent was discontinued (knee arthritis; despite increase in dose of the remaining agent): symptoms worsened | symptomatic relief of knee arthritis (knee arthritis; middle-aged, one patient): did not respond well

C[C@H]1c2cccc(O)c2C(=O)C2=C(O)[C@]3(O)C(=O)C(C(N)=O)=C(O)[C@@H](N(C)C)[C@@H]3[C@@H](O)[C@@H]21 [doxycycline, reference compound]
side effects at two to three times the initial dose of both agents (bilateral hip arthritis; doxycycline with Cox-2 inhibitor): dizziness, nausea and abdominal pain | side effect, doxycycline added to NSAIDs (bilateral hip arthritis; middle aged person): gastrointestinal upset was problematic

B1: papain (protein, UniProt P00784 134-345, looked up)
Papain: IPEYVDWRQKGAVTPVKNQGSCGSCWAFSAVVTIEGIIKIRTGNLNEYSEQELLDCDRRSYGCNGGYPWSALQLVAQYGIHYRNTYPYEGVQRYCRSREKGPYAAKTDGVRQVQPYNEGALLYSIANQPVSVVLEAAGKDFQLYRGGIFVGPCGNKVDHAVAAVGYGPNYILIKNSWGTGWGENGYIRIKRGTGNSYGVCGLYTSSFYPVKN
notes: proteolytic enzyme applied topically
relief from pain (bee sting): mild relief | swelling (bee sting): mild relief

— patent US7112578B2, “Methods and compositions for treatment of inflammatory disease” (priority 2000, dated 2006)
